Assay results as given in patent US4940730A, “Angiogenesis enhancer” (Takeda Chemical Industries, Ltd., priority 1987, dated 1990).

System: hen's chlorioallantoic membrane
Test: CAM (Chorio Allantoic Membrane) assay
Type: in vivo
Conditions: for ED50: amount of drug which gave the numerical value 5 (positive rate) in CAM assay; for Positive rate of CAM assay: average neovascularization score (++=10, +=7, °=3, -=0), 3 days on membrane
Experimental: CAM (Chorio Allantoic Membrane) assay was conducted on various compounds of the present invention. The technique of the CAM assay was that modified somewhat on Auerbach's method [Developmental Biology, 41, 391 (1974)]. More specifically, hen's fertile eggs were incubated for three days at 37° C. (Napco carbon dioxide incubator-6300 was employed, CO2 :0% H2 O saturated). Polypropylene-made discs (6 mm. diameter) were spotted with a chloroform:ethanol (1:4 by volume) solution of each compound so that the concentration may be 0, 0.25, 0.64, 1.6, 4, 10 and 25 ug, respectively. The test materials were air-dried in a clean bench, which were then placed quietly on hen's chlorioallantoic membrane, followed by incubation at 37° C. for further three days. Then, the vascularization state was observed. In the tables, the positive rates were calculated on the following basis. Namely, degrees of neovascularization were determined as ++ for very strong, + for strong, ° for weak and - for negative, and they were numerized as 10, 7, 3 and 0, respectively. The average numerical value in each of the concentrations of the respective samples was made as positive rate. Further, the amount of the drug which gave the numerical value 5 in each sample was shown as ED50 value (ug/disc).

[1] = amount of sample 0.64 μg per disc
[2] = amount of sample 1.6 μg per disc
[3] = amount of sample 10 μg per disc
[4] = amount of sample 25 μg per disc

SMILES | ED50 [ug/disc] | Positive rate of CAM assay [1] | Positive rate of CAM assay [2] | Positive rate of CAM assay (amount of sample 4 μg per disc) | Positive rate of CAM assay [3] | Positive rate of CAM assay [4]
CCCCCCCC/C=C\CCCCCCCC(N)=O [Oleamide] | 16.7 | 0 | 0.6 | 0 | 7.8 | 6.8
CCCCCCCCCCCCCCCCCCCCCC[N+](C)(C)C [1-Trimethyammonio docosane bromide] | 4.00 | 0 | 4.5 | 5.0 | 8.0 | –
CCCCCCCC/C=C\CCCCCCCCCCCCCC(=O)O [Nervonic acid] | 2.75 | 1.8 | 2.5 | 7.8 | 9.3 | 8.5
CCCCC/C=C\C/C=C\CCCCCCCC(=O)O [Linoleic acid] | 7.69 | 0 | 1.8 | 2.5 | 6 | 10
CCCCCCCC/C=C/CCCCCCCCCCCC(=O)O [Brassidic acid] | 1.82 | 3.5 | 6 | 6 | 9.3 | 10
CCCCCCCC/C=C/CCCCCCCCCCCC(N)=O [Brassidamide] | 1.89 | 0 | 2.0 | 7.4 | 9.3 | 10
CCCCCCCCCCCCCC(N)=O [Myristamide] | – | 0 | 0 | 1.3 | 2.6 | 3.5
CCCCCC[C@@H](O)C/C=C\CCCCCCCC(=O)O [Ricinoleic acid] | – | 0 | 1.8 | 1.2 | 2.6 | 3.2
CCCCCCCCCCCCCC(=O)O [Myristic acid] | 25.0 | 0 | 0 | 0.8 | 4 | 5
CC/C=C\C/C=C\C/C=C\C/C=C\C/C=C\C/C=C\CCC(=O)O [Docosahexaenoic acid] | – | 0 | 0 | 0 | 0.6 | 4.8
CCCCCCCC/C=C/CCCCCCCC(=O)O [Elaidic acid] | – | 0 | 0 | 3 | 4 | 4
CCCCCCCCCCCCCCCCCCCCCCCC(=O)O [Lignoceric acid] | 4.61 | 1.4 | 2 | 4.6 | 7.6 | 6.2
CCCCCCCCC1OC1CCCCCCCCCCCCO (stereo not drawn) [13, 14-Eopxy-docosan-1-ol] | 5.18 | 0 | 0 | 3.3 | 9.3 | 10
CCCCCCCC/C=C\CCCCCCCCCCCC(=O)NCC(=O)O [carboxymethyl amine] | 6.58 | 0 | 0 | 2.6 | 7.0 | 10
CCCCCCCCCCCCCCCCCCCCCCCCCC(=O)O [Cerotic acid] | 2.75 | 1.8 | 2.5 | 7.8 | 9.3 | 8.5
CCCCCCCC/C=C\CCCCCCCCCCCC(=O)N1C(C(=O)O)CSC1c1ccncc1 (stereo not drawn) [2-Py-Thia-CO2 H] | 2.67 | 2.8 | 2.6 | 6.8 | 10 | 10

SMILES | ED50 [ug/disc] | Positive rate of CAM assay [1] | Positive rate of CAM assay [2] | Positive rate of CAM assay (amount of sample 4 μg per disc) | Positive rate of CAM assay [3] | Positive rate of CAM assay [4]
CCCCCCCC/C=C\CCCCCCCCCCCC(=O)N(CCO)CCO [N, N-di-diethanol] | 2.42 | 1.0 | 2.3 | 8.0 | 10 | 10
CCCCC/C=C\C/C=C\C/C=C\C/C=C\CCCC(N)=O [Arachidonamide] | 6.13 | 1.3 | 1.6 | 2.9 | 7.4 | 9.6
CCCCCCCC/C=C\CCCCCCCCCCCC(=O)N1CCC[C@H]1C(=O)OC [proline methylester, N-erucoyl-proline methyl ester] | 4.00 | 0.8 | 2.3 | 5.0 | 7.8 | 10
CCCCC/C=C\C/C=C\C/C=C\C/C=C\CCCC(=O)O [Arachidonic acid] | 3.64 | 2.5 | 3.5 | 5.3 | 7 | 10
CCCCCCCC/C=C\CCCCCCCCCCCCO [13-Docosen-1-ol] | 2.15 | 1.4 | 4.8 | 6.8 | 9.4 | 10
CCCCCCCCC1OC1CCCCCCCCCCCC(N)=O (stereo not drawn) [13,14-Epoxyerucamide] | 2.22 | 1.5 | 3.3 | 8.5 | 10 | 10
CCCCCCCCCCCCCCCCCCCCCC(N)=O [Behenamide] | 2.76 | 0 | 1.8 | 7.6 | 10 | 10
CCCCCCCC/C=C\CCCCCCCCCCCC(=O)N(C)C [N,N-dimethyl] | 5.41 | 0 | 1.5 | 3.3 | 8.5 | 9.3
CCCCCCCCCCCCCCCC(N)=O [Palmitamide] | 15.6 | 0 | 0 | 0.3 | 2.4 | 7.7
CCCCCCCCCCCCCCCCCCCCCCO [Docosan-1-ol] | 2.55 | 0 | 1.8 | 8.3 | 10 | 10
CCCCCCCCCCCCCCCCCCCC(N)=O [Arachidamide] | 11.5 | 0 | 2.8 | 3.4 | 4.6 | 7.4
CCCCCCCCC(O)C(O)CCCCCCCCCCCC(=O)O (stereo not drawn) [Erucic acid diOH] | 3.45 | 0 | 2.0 | 7.4 | 8.2 | 10
CCCC(N)=O [Butyramide, reference compound] | – | 0 | 0 | 0 | 0 | 0
CCCCCCCCCCCCCCCC(=O)O [Palmitic acid] | 14.5 | 0 | 0 | 0 | 3.2 | 7.6
CCCCCCCCCCCCCCCCCCCC(=O)O [Arachidic acid] | 4.00 | 0 | 4.6 | 4.6 | 7.6 | 8.8
